These results are taken from patent US4956363A, “Treatment of cognitive and behavioral disorders associated with aging and with dementia syndromes” (U C B S.A., priority 1988, dated 1990).

The structures appear in SMILES notation. Entries after “also recorded” stand apart in the source; their conditions may differ.

Data set [1] has as its system hyperactivity induced by scopolamine. Nature of the data set: Inhibition of hyperactivity induced by scopolamine. It is filed as in vivo, rats (male Sprague-Dawley SPF). The note with it: administered more than 15 minutes before the measurements; in words.
The subject of data set [2] is effects of scopolamine on the EEG, band from 6.4 to 9.6 Hz. In words: Inhibition of the effects of scopolamine on the electroencephalogram (EEG). As to conditions: for Inhibition of the effects of scopolamine on the band from 6.4 to 9.6 Hz in the EEG: rats, i.p. at the dose (mg/kg) of the line in Table IV, scopolamine 0.5 mg/kg i.p. It is filed as in vivo, rats (male albino Sprague-Dawley SPF). The method, then:
Male albino Sprague-Dawley SPF rats (160 to 200 g) are used in this test.
When the animals are 3 months old, 5 cortical electrodes are implanted permanently, aseptically and under a general anesthesia: one inert electrode, one left and one right frontal electrode, and one left and one right occipital electrode (P. ETEVENON, loc. cit.).
The test is carried out when the animals are about 15 months old. In the meantime, the animals are kept in individual cages. They are given water and food ad libitum and are subjected to a regular daily cycle comprising a period of darkness between 6 o'clock in the evening and 6 o'clock in the morning. At the same time, the animals are progressively acclimatized to the cages of the sound-proof cabin which they will subsequently occupy for recording of the electroencephalograms, as well as to the experimental conditions, by intraperitoneal administration of placebo. The products are administered immediately before the EEG is recorded.
The rats are divided into groups of 8 animals and 16 samples of the EEG spectra are recorded over 5 seconds (two EEG spectra per animal). The spectra obtained are then analyzed by computer (rapid Fourier transform), which enables the average of the 16 measurements performed to be determined for each group and the overall intensity of the EEG spectrum and the distribution of this intensity (in %) in the various frequency bands to be deduced for each animal.
This operation (recording of the spectra) is repeated 9 times (total duration: 121 minutes).

Data set [3] concerns learning of the avoidance reflex. Nature of the data set: Multiple-trial passive avoidance: learning. The note with it: i.p. at the dose (mg/kg) of the line in Table V, 30 min before test; criterion 180 seconds on the mat. It is filed as in vivo, rats (male Sprague-Dawley). The method, then: To evaluate whether a compound can promote learning, the following test is carried out.
This experiment is repeated until the animal remains on the rubber mat for at least 180 seconds in order to avoid the electric shock. The learning is expressed by the average number of trials needed to reach a period of 180 seconds remaining on the mat.
A period of remaining on the rubber mat of 180 seconds is regarded as being the maximum performance which can be realized by the animal to avoid the electric shock. Rats which remain on the mat for this period have acquired the avoidance reflex and are replaced in their original cage without receiving the electric shock.
group 1 receives an intraperitoneal injection of physiological salt solution:
group 2 receives an intraperitoneal injection of the compound to be tested:
Columns 3 and 4 show the results obtained in the test used to evaluate the learning. The figures indicate the average number of trials needed for a control animal (group 1) or an animal treated (group 2) with the compound to learn to remain on the rubber mat for 180 seconds in order to avoid the electric shock. The results were analyzed by the Student test.

The test system of data set [4] is amnesia induced by scopolamine. Nature of the data set: Multiple-trial passive avoidance: mnemic retention (amnesia induced by scopolamine). As to conditions: for Period of remaining on the mat, group 4, 4 hours / Period of remaining on the mat, group 4, 24 hours / Period of remaining on the mat, group 4, 28 hours: compound i.p. at the dose of the line + scopolamine 0.5 mg i.p. The method, then:
To this end, the method of multiple-trial passive avoidance has been used. This method is well-known for evaluating the effects which a product exerts on the memory and learning (A. FINE et al., Proc. Natl. Acad. Sci. U.S.A., 82, (1985), 5227-5230).
The test is carried out on male Sprague-Dawley rats (160-200 g). which are kept in standard cages throughout the experiment.
The apparatus used is a transparent square cage with 35 cm sides and 25 cm high, fitted with a grid floor which can be electrified. An insulating rubber mat (10×17 cm) is placed on the floor in one of the corners of the cage.
Each animal is subjected to four tests at times 0, 4, 24 and 28 hours. In the first test (time 0), the animal is placed on the rubber mat and the time which it takes to decide to leave this position to explore the cage is recorded. After 20 seconds of exploration, the rat receives an electric shock (3 seconds duration) in the paws, causing a flight reaction. The rat is immediately removed from the apparatus and replaced in its original cage. In the course of the three subsequent tests (times: 4, 24 and 28 hours), the animal is replaced on the rubber mat and the time taken to leave this position is recorded. When the four paws of the animal rest on the grid, it receives an electric shock and is immediately removed from the apparatus.
At the start of the experiment, the rats are divided into 4 homogeneous groups of 15 animals. Thirty minutes before each test, each group of animals is subjected to a predetermined treatment:
Groups 1 and 2 are used in the first experiment and groups 3 and 4 are used in the second experiment.
The differences observed are analyzed statistically by the Mann-Whitney method.

Data set [5] deals with hyperactivity induced by scopolamine. The note with it: rats placed in a new environment; in words, literature; cited from earlier work.
The next data set concerns memory. The note with it: in words, literature; cited from earlier work.
In data set [6] the test system is tremogenic effect of oxotremorine (central cholinergic activation). Nature of the data set: Potentiation of the central cholinergic (tremogenic) effect of oxotremorine. It is filed as in vivo, mice (male NMRI). The method, then:
The degree of central cholinergic activation is measured by the tremogenic effect quantified by the following rating system:
score 1: slight and periodic occasional tremors;
score 2: moderate and slight tremors often repeated;
score 4: accentuated tremors, but interrupted by periods of calm;
score 6: very accentuated and almost continuous tremors.
(§1) Male NMRI mice (20 to 25 g) are divided into four groups of five animals, that is to say: one control group and three treated groups.
The compound to be tested is administered intraperitoneally (to the three treated groups) 20 minutes before the administration of the oxotremorine, at a dose which differs for each of the treated groups.
The oxotremorine is administered intraperitoneally to the treated groups and to the control group at a dose of 0.05 mg/kg dissolved in 10 ml/kg of physiological salt solution. […]
(§2) For each of the groups, the individual scores recorded at each observation period are summed: this enables to plot a curve showing the sum of the scores as a function of time, which is characteristic for each group.
(§3) The mean values of the areas under the curves obtained for each of the treated groups are compared with the mean value of the area under the curve corresponding to the control group and is subjected to statistical analysis by the Mann-Whitney method. From this comparison, "a minimum active dose" can be determined. […]

Another data set concerns male NMRI mice. Nature of the data set: Toxicity, Irwin's test. The note with it: mice, i.p.; death of two animals out of three within 48 hours. It is filed as in vivo. As to the method: Progressive doses of the compound to be tested are administered intraperitoneally to groups of three mice until the lethal dose is reached (dose which causes the death of two animals out of three within 48 hours).

For data set [7], the system named is salivatory effect of oxotremorine (peripheral cholinergic activation). Nature of the data set: Potentiation of the peripheral cholinergic (salivatory) effect of oxotremorine. It is filed as in vivo, mice (male NMRI). As to conditions: 20 minutes after administration at the minimum active dose; in words. The method, then:
The degree of peripheral cholinergic activation is measured by the salivatory effect quantified by the following rating system:
score 1: a little saliva is found around the teeth;
score 2: the saliva forms a narrow band around the mouth;
score 4: the saliva wets a surface underneath the chin;
score 6: the saliva runs from the mouth, for example onto the forelegs.
The intermediate scores are not used, and the saliva is wiped away after each observation.
as §1
The compound to be tested is administered intraperitoneally (to the three treated groups) 20 minutes before the administration of the oxotremorine, at a dose which differs for each of the treated groups. […]
as §2, §3

As for `CNC(=O)Oc1ccc2c(c1)[C@]1(C)CCN(C)[C@@H]1N2C` [physostigmine, reference compound], the “activity of physostigmine on the hyperactivity induced by scopolamine” value in data set [1] is “inactive”. In addition, in data set [2], the “Inhibition of the effects of scopolamine on the band from 6.4 to 9.6 Hz in the EEG” value worked out at 76.8%. Also, the “effect on the EEG spectrum” value in [2] (scopolamine 0.5 mg/kg i.p. in rats, in words) is reported as “counteracts these variations”. For the same molecule, in data set [3], the “Learning, average number of trials (group 2)” value (“Learning, average number” below) amounted to 2.30. Also, in data set [4], the “Period of remaining on the mat, group 4, 4 hours” value was 17.8 s; the “Period of remaining on the mat, group 4, 24 hours” value (shortened to “Period of remaining … 24 hours”) worked out at 56.2 s; the “Period of remaining on the mat, group 4, 28 hours” value (from here on “Period of remaining … 28 hours”) amounted to 53.4 s. Also, the “relation of active dose to side effects / toxic dose” value in data set [4] (dose active against the amnesing effect of scopolamine, in words) was “obtained at a dose which has side effects and is very close to the toxic dose”. In addition, in data set [4] (in words), the “effect against the amnesing effect of scopolamine” value is “favorable action against the amnesing effect of scopolamine”. The “effect on exploratory activity” value in [5] is reported as “counteracts the hyperactivity induced by scopolamine”. For the same molecule, the effect on memory entry in the data set on memory was “an improvement in anemic disorders; also recorded: capable of combating the amnesia resulting from the administration of anticholinergic agents”.
Consider `O=C1CCCN1CC#CCN1CCCC1` [oxotremorine], for which the minimal effective dose in data set [6] (Mus musculus, ip, mice, i.p., approximate, read-out: minimum dose of oxotremorine which causes tremors and salivation) is roughly 0.05 mg/kg.
For the molecule `CCCc1nc(N)nc(N2CCOCC2)n1` [Compound 44, 2-Amino-4-morpholino-6-propyl-1,3,5-triazine], the “Inhibition of the effects of scopolamine on the band from 6.4 to 9.6 Hz in the EEG” value in data set [2] is 100%. Moreover, the “Learning, average number” value in data set [3] is on record as 1.13. In the data set on male NMRI mice, the Lethal dose turned out to be 779 mg/kg.
On the same counts, the results for `CCCc1nc(NC)nc(N2CCOCC2)n1` [Compound 45, 2-(Methylamino)-4-morpholino-6-propyl-1,3,5-triazine] are 91.7%, 2.00 and 821 mg/kg.
Take `CCCc1nc(NCCO)nc(N2CCOCC2)n1`: the “Learning, average number” value in data set [3] is listed as 1.53. In data set [4], the “Period of remaining on the mat, group 4, 4 hours” value stood at 44.8 s; the “Period of remaining … 24 hours” value was determined as 61.3 s; the “Period of remaining … 28 hours” value came to 102.7 s. This molecule yielded a Lethal dose in the data set on male NMRI mice of 802 mg/kg.
`CN1[C@@H]2C[C@@H](OC(=O)[C@H](CO)c3ccccc3)C[C@H]1[C@@H]1O[C@@H]12` [scopolamine]: the “effect on exploratory activity” value in [5] is reported as “induces exploratory hyperactivity”. For the same molecule, the effect on memory result in the data set on memory is reported as “gives rise to memory deficiencies similar to those observed in elderly subjects”.
For the molecule `COC(=O)C1=CCCN(C)C1` [arecoline, methyl 1,2,5,6-tetrahydro-1-methyl-3-pyridinecarboxylate], the “potentiation of the salivatory effect of oxotremorine” value in data set [7] is reported as “no potentiation”. Besides, in data set [6] (20 minutes after administration at the minimum active dose, in words), the “potentiation of the tremogenic effect of oxotremorine” value is given as “no potentiation”.
`CCCc1nc(N(C)CCO)nc(N2CCOCC2)n1`: the “Learning, average number” value in data set [3] is on record as 2.0. Moreover, in data set [4], the “Period of remaining on the mat, group 4, 4 hours” value stood at 67.9 s; the “Period of remaining … 24 hours” value stood at 62.7 s; the “Period of remaining … 28 hours” value worked out at 160.3 s. This molecule yielded a Lethal dose in the data set with male NMRI mice of 844 mg/kg.
